Reference: patent US6531610B1 (Abbott Laboratories, priority 1989, dated 2003)
Counter-ions that a name gives are not always drawn. Like-named read-outs stand apart in the source and are kept apart here.

Experiments:
HIV-1 protease = HIV-1 protease (Human immunodeficiency virus type 1 group M subtype B, UniProt P04585); experiment: Fluorogenic assay for screening inhibitors of HIV protease; assay type: biochemical; conditions: Inhibitor Concentration 0.5 nanomolar, fluorogenic substrate, pH 4.5, read-out: Percent Inhibition
Method: The inhibitory potency of the compounds of the invention can be determined by the following method.
A compound of the invention is dissolved in DMSO and a small aliquot further diluted with DMSO to 100 times the final concentration desired for testing. The reaction is carried out in a 6×50 mm tube in a total volume of 300 microliters. The final concentrations of the components in the reaction buffer are: 125 mM sodium acetate, 1 M sodium chloride, 5 mM dithiothreitol, 0.5 mg/ml bovine serum albumin, 1.3 μM fluorogenic substrate, 2% (v/v) dimethylsulfoxide, pH 4.5. After addition of inhibitor, the reaction mixture is placed in the fluorometer cell holder and incubated at […] for several minutes. The reaction is initiated by the addition of a small aliquot of cold HIV protease. The fluorescence intensity (excitation 340 nm, emission 490 nm) is recorded as a function of time. The reaction rate is determined for the first six to eight minutes. The observed rate is directly proportional to the moles of substrate cleaved per unit time. The percent inhibition is 100×(1-(rate in presence of inhibitor)/(rate in absence of inhibitor)).
Fluorogenic substrate: Dabcyl-[…]EDANS wherein DABCYL=4-(4-dimethylamino-phenyl)azobenzoic acid and EDANS=5-((2-aminoethyl)amino)-naphthalene-1-sulfonic acid.

HIV-13B in MT4 cells = experiment: Antiviral activity: inhibition of the cytopathic effect of HIV in MT4 cells; assay type: cell-based, HIV-1
in vitro = assay type: cell-based; conditions: human
Excerpt: (§1) The anti-HIV activity of the compounds of the invention can be determined in MT4 cells according to the procedure of Kempf, et. al. (Antimicrob. Agents Chemother. 1991, 35, 2209).

MT4 cells = experiment: in vitro; assay type: cell-based; conditions: concentration at which 50% of the cells remain viable; MT4 cells; read-out: LC50 (the source's name)
Excerpt: as §1

[1] = Human immunodeficiency virus 1, MT4, read-out: IC50
[2] = Human immunodeficiency virus 1, MT4
[3] = concentration at which 50% of the cells remain viable, MT4 cells, read-out: LC50 (the source's name)
[4] = concentration giving 50% inhibition of the cytopathic effect of HIV, HIV-13B in MT4 cells, read-out: IC50

| Compound | inhibition at 0.0005 µM (HIV-1 protease) [%] | IC50 (HIV-13B in MT4 cells; [1]) [nM] | CC50 (in vitro) [nM] | other results |
| --- | --- | --- | --- | --- |
| CC(C)[C@H](NC(=O)OCc1csc(N2CCCC2)n1)C(=O)N[C@@H](Cc1ccccc1)C[C@H](O)[C@H](Cc1ccccc1)NC(=O)OCc1cncs1 [Example 13, (2S,3S,5S)-5-(N-(N-((2-(1-Pyrrolidinyl)-4-thiazolyl)methoxycarbonyl)valinyl)amino)-2-(N-((5-thiazolyl)methoxycarbonyl)amino)-1,6-diphenyl-3-hydroxyhexane] | 46 | 56 to 88 | 56000 | – |
| CC(C)c1nc(COC(=O)N[C@H](C(=O)N[C@@H](Cc2ccccc2)[C@@H](O)C[C@@H](Cc2cncs2)NC(=O)OCc2cncs2)C(C)C)cs1 [Example 65, (2S,3S,5S)-2-(N-(N-((2-Isopropyl-4-thiazolyl)methoxycarbonyl)valinyl)amino)-1-phenyl-5-(N-((5-thiazolyl)methoxycarbonyl)amino)-6-(5-thiazolyl)-3-hydroxyhexane] | 70 | 120 to 200 | > 100000 | – |
| CCN(Cc1csc(C2CCCC2)n1)C(=O)N[C@@H](C)C(=O)N[C@@H](Cc1ccccc1)C[C@H](O)[C@H](Cc1ccccc1)NC(=O)OCc1cncs1 [Example 60] | 44 | – | – | IC50 (HIV-13B in MT4 cells; [2]): 340 to 510 nM; CC50 (in vitro; [3]): 17000 nM |
| CC(C)[C@H](NC(=O)N(C)Cc1csc(N2CCCC2)n1)C(=O)N[C@@H](Cc1ccccc1)C[C@H](O)[C@H](Cc1ccccc1)NC(=O)OCc1cncs1 [Example 46, (2S,3S,5S)-5-(N-(N-((N-Methyl-N-((2-(1-pyrrolidinyl)-4-thiazolyl)methyl)amino)carbonyl)valinyl)amino)-2-(N-((5-thiazolyl)methoxycarbonyl)amino)-1,6-diphenyl-3-hydroxyhexane] | 46 | 100 to 170 | – | – |
| CC(C)c1nc(CN(N)C(=O)N[C@H](C(=O)N[C@@H](Cc2ccccc2)C[C@H](O)[C@H](Cc2ccccc2)NC(=O)OCc2cncs2)C(C)C)cs1 [Example 63, (2S,3S,5S)-5-(N-(N-((N-(Amino)-N-((2-isopropyl-4-thiazolyl)methyl)amino)carbonyl)valinyl)amino)-2-(N-((5-thiazolyl)methoxycarbonyl)amino)-1,6-diphenyl-3-hydroxyhexane Hydrochloride] | 61 | – | – | IC50 (HIV-13B in MT4 cells; [2]): 130 to 180 nM; CC50 (in vitro; [3]): 45000 nM |
| CC(C)c1nc(CN(C)C(=O)N[C@H](C(=O)N[C@@H](Cc2ccccc2)C[C@H](O)[C@H](Cc2ccccc2)NC(=O)OCc2cnc(C(C)C)s2)C(C)C)cs1 [Example 45, (2S,3S,5S)-5-(N-(N-((N-Methyl-N-((2-isopropyl-4-thiazolyl)methyl)amino)carbonyl)valinyl)amino)-2-(N-(((2-isopropyl)-5-thiazolyl)methoxycarbonyl)amino)-1,6-diphenyl-3-hydroxyhexane] | 50 | 36 to 40 | – | – |
| CC(C)c1nc(CC(=O)N[C@H](C(=O)N[C@@H](Cc2ccccc2)C[C@H](O)[C@H](Cc2ccccc2)NC(=O)OCc2cncs2)C(C)C)cs1 [Example 50] | – | – | – | IC50 (HIV-13B in MT4 cells; [4]): 150 to 270 nM; CC50 (MT4 cells): > 100000 nM |
| CC(C)[C@H](NC(=O)N(C)Cc1csc(C2CCCC2)n1)C(=O)N[C@@H](Cc1ccccc1)C[C@H](O)[C@H](Cc1ccccc1)NC(=O)OCc1cncs1 [Example 58, (2S,3S,5S)-5-(N-(N-((N-Methyl-N-((2-cyclopentyl-4-thiazolyl)methyl)amino)carbonyl)valinyl)amino)-2-(N-((5-thiazolyl)methoxycarbonyl)amino)-1,6-diphenyl-3-hydroxyhexane] | 49 | 30 to 46 | 18000 | – |
| CC(C)Cc1nc(CN(C)C(=O)N[C@H](C(=O)N[C@@H](Cc2ccccc2)C[C@H](O)[C@H](Cc2ccccc2)NC(=O)OCc2cncs2)C(C)C)cs1 [Example 59, (2S,3S,5S)-5-(N-(N-((N-Methyl-N-((2-isobutyl-4-thiazolyl)methyl)amino)carbonyl)valinyl)amino)-2-(N-((5-thiazolyl)methoxycarbonyl)amino)-1,6-diphenyl-3-hydroxyhexane] | 39 | 110 to 130 | 18000 | – |
| CC(C)c1nc(CN(NC(=O)OC(C)(C)C)C(=O)N[C@H](C(=O)N[C@@H](Cc2ccccc2)C[C@H](O)[C@H](Cc2ccccc2)NC(=O)OCc2cncs2)C(C)C)cs1 [Example 62, (2S,3S,5S)-5-(N-(N-((N-(tert-Butyloxycarbonylamino)-N-((2-isopropyl-4-thiazolyl)methyl)amino)carbonyl)valinyl)amino)-2-(N-((5-thiazolyl)methoxycarbonyl)amino)-1,6-diphenyl-3-hydroxyhexane] | 54 | 690 to 1000 | 17000 | – |
| CC(C)c1nc(CN(C)C(=O)N[C@H](C(=O)N[C@@H](Cc2ccccc2)C[C@H](O)[C@H](Cc2ccccc2)NC(=O)OCc2cnco2)C(C)C)co1 [Example 19] | – | – | – | IC50 (HIV-13B in MT4 cells; [4]): 22 to 48 nM; CC50 (MT4 cells): 87000 nM |
| CC(C)c1csc(COC(=O)N[C@H](C(=O)N[C@@H](Cc2ccccc2)C[C@H](O)[C@H](Cc2ccccc2)NC(=O)OCc2cncs2)C(C)C)n1 [Example 21, (2S,3S,5S)-5-(N-(N-((4-Isopropyl-2-thiazolyl)methoxycarbonyl)valinyl)amino)-2-(N-((5-thiazolyl)methoxycarbonyl)amino)-1,6-diphenyl-3-hydroxyhexane] | – | – | – | melting point: 62 to 64 °C |
| CC(C)[C@H](NC(=O)OCc1csc(N(C)C)n1)C(=O)N[C@@H](Cc1ccccc1)C[C@H](O)[C@H](Cc1ccccc1)NC(=O)OCc1cncs1 [Example 9, (2S,3S,5S)-5-(N-(N-((2-(N,N-Dimethylamino)-4-thiazolyl)methoxycarbonyl)valinyl)amino)-2-(N-((5-thiazolyl)methoxycarbonyl)amino)-1,6-diphenyl-3-hydroxyhexane] | – | 80 to 100 | 62000 | – |
| CC(C)c1nc(COC(=O)N[C@H](C(=O)N[C@H](Cc2cncs2)C[C@H](O)[C@H](Cc2ccccc2)NC(=O)OCc2cncs2)C(C)C)cs1 [Example 64, (2S,3S,5S)-5-(N-(N-((2-Isopropyl-4-thiazolyl)methoxycarbonyl)valinyl)amino)-1-phenyl-2-(N-((5-thiazolyl)methoxycarbonyl)amino)-6-(5-thiazolyl)-3-hydroxyhexane] | – | 100 to 130 | > 100000 | – |
